Experimental data published in PMC11948302, “OATP1B-type Transport Function Is a Determinant of Aromatase Inhibitor–Associated Arthralgia Susceptibility” (Cancer Research Communications, 2025).
Marks after values point to notes of the source that are not given here.

How the values were obtained:
[1] = tested on: mice; assay: Photobeam activity open field system (physical activity); type: in vivo
Experimental: An open-field photobeam activity system was used to monitor the motor activity of mice over a period of 12 hours after administration of letrozole ([27], [28]). Spontaneous physical/locomotor activity was assessed using an activity monitoring system consisting of a two-dimensional (X and Y axes) square frame that emits a grid of infrared beams (IR Actimeter and Actitrack software, Panlab, Harvard Apparatus). Animals were placed in a transparent enclosure inside the frame, and movement within the enclosure (general locomotor activity) was recorded as interruptions in the beams. During acute studies, mice were dosed with letrozole (0.5 mg/kg) orally at 5:00 pm and were tested individually for 12 hours during the active/dark phase of the light cycle (6:00 pm–6:00 am). Physical activity of the mice was similarly monitored at baseline and at the end of 15 days of the chronic treatment.

[2] = tested on: mice; assay: Von Frey hair test (mechanical sensitivity); type: in vivo
Experimental: Von Frey filaments were used as a mechanical sensitivity measurement following administration of letrozole in both chronic and acute treatments, using a strategy developed previously ([24]). After ensuring that the animal is acquainted with the environment, joint pain was directly evaluated by a hind limb withdrawal response to mechanical stimulation applied by the filaments. […] After a single dose, mechanical sensitivity was tested with the Von Frey filaments at 0, 1, 3, 6, and 24 hours after drug administration ([25], [26]). During the chronic treatment of letrozole (0.1 mg/kg/day for 15 days), mechanical sensitivity was measured at baseline, at the end of week 1, and the end of week 2. Analysts were blinded to the composition of the treatment groups.

[3] = tested on: Oatp1b2; assay: CDCA-24G plasma biomarker of hepatic Oatp1b2 function in mice; type: in vivo; conditions: single oral letrozole 10 mg/kg, 2 hours
Experimental: A, The levels of CDCA-24G biomarker in plasma were measured via LC/MS-MS in wild-type and Cyp3a^(−/−) mice treated with a single oral administration of letrozole (10 mg/kg) or vehicle. […] Data are shown as mean ± SD. Two-sided, unpaired Student t tests were used to analyze the data and no multiple comparison adjustment was applied. **, P < 0.01 and ****, P < 0.0001 compared with the wild-type group; n = 9 to 10 per group.

[4] = tested on: mice; assay: Histopathology of knee joints after chronic letrozole; type: in vivo; conditions: mice receiving multiple doses of letrozole (0.1 mg/kg/day, 15 days)
Experimental: At the end of the chronic letrozole treatment, hind limbs of three randomly selected mice per group were collected, peeled for skin, and preserved in 10% neutral buffered formaline at room temperature for at least 48 hours until tissue processing. Tissues from the hind limbs were routinely processed for histopathology on a Leica Peloris 3 Tissue Processor (Leica Biosystems), embedded in paraffin, sectioned at an approximate thickness of 4 to 5 μm, and batch stained with hematoxylin and eosin on a Leica ST5020 autostainer using a routine and quality-controlled protocol. Slides were evaluated and representative photomicrographs were taken by a board-certified veterinary pathologist using a Nikon Eclipse Ci-L Upright Microscope (Nikon Instruments, Inc.) with attached 18 megapixel Olympus SC180 microscope-mounted digital camera and cellSens imaging software (Olympus Life Science).

[5] = In vivo pharmacokinetic studies in mice (plasma and liver, LC/MS-MS); conditions: for AUC fold change vs. WT: 95% confidence interval; for AUC(0-t) / Cmax: female, FVB, mouse, plasma, po, 10 mg/kg
Experimental: The analysis was conducted using a Vanquish UHPLC aligned with a Quantiva triple-stage quadrupole mass spectrometer (Thermo Fisher Scientific). An ACQUITY UPLC BEH C18 Column (130 Å, 1.7 μm, 2.1 mm × 50 mm, Waters Co.) protected by ACQUITY UPLC BEH Shield RP18 VanGuard Pre-column (130 Å, 1.7 μm, 2.1 mm × 5 mm, Waters Co.) was used for analyte separation. The injection volume of the sample was 10 μL. The temperature of the column was kept at 40°C, whereas the autosampler rack was kept at 4°C. The mobile phase consisted of solvent A, which was a solution of 0.1% acetic acid in LC/MS-grade water, and solvent B, which was a solution of 0.1% formic acid in acetonitrile. The total run time was 4.5 minutes. The following were the gradient conditions: 0.3 mL/minutes was the flow rate for the following intervals: 0 to 0.5 minutes, 30% B; 0.5 to 3.0 minutes, 30% to 95% B; 3.0 to 4.0 minutes, 95% B; and 4.001 to 4.5 minutes, 95% to 30% B. The vaporizer was adjusted to 360°C, and the ion transfer tube temperature was 340°C. The mass spectrometry assay was configured with a positive voltage of 3600 V delivered to the ESI capillary. The collision gas utilized was argon, with a pressure of 1.5 mTorr. The mass spectrometer was set up with the following optimized parameters: 1 arbitrary unit (Arb) for sweep gas, 5 Arb for auxiliary gas, and 25 Arb for sheath gas. […] The accuracy, expressed as a percent bias varied from −7.80% to 5.10%, whereas the inter-assay and intra-assay precisions ranged from 2.19% to 7.09% according to the results of assay validation tests. The lower limit of quantification was 0.4 ng/mL.
Letrozole was quantified using an LC/MS-MS method described previously ([14]). A Vanquish UHPLC and Quantiva triple-stage quadrupole mass spectrometer (Thermo Fisher Scientific) were used in the analysis. Analytes were separated chromatographically using a C18 AQUASIL guard cartridge (2.1 mm × 10 mm, 3 μm; Thermo Fisher Scientific) and an Accucore aQ column (50 mm × 2.1 mm, 2.6 μm). The temperature of the column was set at 40°C, whereas the autosampler was kept at 4°C. The mobile phase consisted of solvent A, which was a solution of 0.1% acetic acid in LC/MS-grade water, and solvent B, which was a solution of 0.1% formic acid in acetonitrile. A gradient elution method was employed for 5.0 minutes, with a flow rate of 0.4 mL/minutes. […] Injections were performed using 3 μL of the extracted samples. The mass spectrometer parameters were optimized and configured as follows: 25 Arb for sheath gas, 5 Arb for auxiliary gas, and 1 Arb for sweep gas. The temperature of the ion transfer tube and vaporizer was adjusted to 340°C and 360°C, respectively. Argon was used as the collision gas at a pressure of 1.5 mTorr. […] The lower limit of quantification was 5 ng/mL.
Female wild-type, Oatp1a/1b cluster-knockout mice [Oatp1a/1b^(−/−) mice] and Oatp1a/1b^(−/−) mice with transgenic hepatic expression of OATP1B1 [OATP1B1^(tg) mice] or OATP1B3 [OATP1B3^(tg) mice] were all on an FVB background (RRID: IMSR_T000141), and experimental groups were age- and weight-matched for each experiment. Female mice with a deficiency of all Cyp3a isoforms [Cyp3a^(−/−)] were similarly matched with FVB wild-type mice. All mice were bred in-house. Littermates of the same sex and genotype were housed in groups of maximally five animals in a temperature- and light-controlled environment (12-hour light/dark cycles) in cages lined with absorbent bedding. Mice were given free access to standard food and water.
For in vivo pharmacokinetic studies, mice were randomized into experimental groups of equal size.

[6] = tested on: patients; conditions: 2.5 mg daily for 5 years vs intermittent regimen, randomized phase III; cited from earlier work
[7] = parameters: method as in earlier work; conditions: patients receiving continuous dosing regimens, prescribing information; cited from earlier work
[8] = OATP1B1^(tg) mice, chronic letrozole 0.1 mg/kg/day for 15 days, 12 hours
[9] = OATP1B1^(tg) mice, single oral letrozole 0.5 mg/kg, 12 hours
[10] = OATP1B3^(tg) mice, chronic letrozole 0.1 mg/kg/day for 15 days, 12 hours
[11] = OATP1B3^(tg) mice, single oral letrozole 0.5 mg/kg, 12 hours
[12] = Oatp1a/1b^(−/−) mice, chronic letrozole 0.1 mg/kg/day for 15 days, 12 hours
[13] = Oatp1a/1b^(−/−) mice, single oral letrozole 0.5 mg/kg, 12 hours
[14] = wild-type mice, chronic letrozole 0.1 mg/kg/day for 15 days, 12 hours
[15] = wild-type mice, letrozole 0.5 mg/kg, 12 h, Table S4
[16] = wild-type mice, single oral letrozole 0.5 mg/kg, 12 hours
[17] = wild-type mice, single oral letrozole 0.5 mg/kg, 12 hours, listed as letrozole

For `N#Cc1ccc(C(c2ccc(C#N)cc2)n2cncn2)cc1` [Letrozole], the “Activ. (global activity)” value [1, 8] was 28,800, the Dist. (total distance traveled) [1, 8] was 380 m and the “Locom. (locomotion)” value [1, 8] was 25,909. The “MF (%) (moving fast)” value [1, 8] was 6.22%, the “MS (%) (moving slow)” value [1, 8] was 11.58% and the “RT (%) (resting time % of total duration)” value (“RT (%)” below) [1, 8] was 82.19%. For the same compound, the “Res.T. (resting time)” value [1, 8] was 9.86 h, the “Stere. (stereotypes)” value [1, 8] was 2,892 and the “Activ. (global activity)” value [1, 9] was 31,678. The Dist. (total distance traveled) [1, 9] was 377 m, the “Locom. (locomotion)” value [1, 9] was 28,964 and the “MF (%) (moving fast)” value [1, 9] was 6.60%. The “MS (%) (moving slow)” value [1, 9] was 11.08%, the “RT (%)” value [1, 9] was 82.34% and the “Res.T. (resting time)” value [1, 9] was 9.88 h. The “Stere. (stereotypes)” value [1, 9] was 2,713, the “Activ. (global activity)” value [1, 10] was 29,841 and the Dist. (total distance traveled) [1, 10] was 373 m. For the same compound, the “Locom. (locomotion)” value [1, 10] was 27,036, the “MF (%) (moving fast)” value [1, 10] was 6.28% and the “MS (%) (moving slow)” value [1, 10] was 12.01%. For the same compound, the “RT (%)” value [1, 10] was 81.71%, the “Res.T. (resting time)” value [1, 10] was 9.80 h and the “Stere. (stereotypes)” value [1, 10] was 2,804. The “Activ. (global activity)” value [1, 11] was 27,095, the Dist. (total distance traveled) [1, 11] was 340 m and the “Locom. (locomotion)” value [1, 11] was 24,448. For the same compound, the “MF (%) (moving fast)” value [1, 11] was 5.72%, the “MS (%) (moving slow)” value [1, 11] was 11.06% and the “RT (%)” value [1, 11] was 83.22%. For the same compound, the “Res.T. (resting time)” value [1, 11] was 9.98 h, the “Stere. (stereotypes)” value [1, 11] was 2,647 and the “Activ. (global activity)” value [1, 12] was 26,637. For the same compound, the Dist. (total distance traveled) [1, 12] was 316 m, the “Locom. (locomotion)” value [1, 12] was 24,065 and the “MF (%) (moving fast)” value [1, 12] was 5.23%. For the same compound, the “MS (%) (moving slow)” value [1, 12] was 11.23* %, the “RT (%)” value [1, 12] was 83.55* % and the “Res.T. (resting time)” value [1, 12] was 10.0* hours. For the same compound, the “Stere. (stereotypes)” value [1, 12] was 2,572, the “Activ. (global activity)” value [1, 13] was 26,674 and the Dist. (total distance traveled) [1, 13] was 286 m. For the same compound, the “Locom. (locomotion)” value [1, 13] was 24,494, the “MF (%) (moving fast)” value [1, 13] was 4.64% and the “MS (%) (moving slow)” value [1, 13] was 10.40%. For the same compound, the “RT (%)” value [1, 13] was 84.96%, the “Res.T. (resting time)” value [1, 13] was 10.2 h and the “Stere. (stereotypes)” value [1, 13] was 2,180*. For the same compound, the “Activ. (global activity)” value [1, 14] was 30,580, the Dist. (total distance traveled) [1, 14] was 383 m and the “Locom. (locomotion)” value [1, 14] was 27,528. For the same compound, the “MF (%) (moving fast)” value [1, 14] was 6.32%, the “MS (%) (moving slow)” value [1, 14] was 13.30% and the “RT (%)” value [1, 14] was 80.34%. For the same compound, the “Res.T. (resting time)” value [1, 14] was 9.64 h, the “Stere. (stereotypes)” value [1, 14] was 3,052 and the “Dist. (total distance traveled)” value [1, 15] was 512 m. For the same compound, the “Res.T. (resting time)” value [1, 15] was 9.06 h, the “Activ. (global activity)” value [1, 16] was 41163 and the Dist. (total distance traveled) [1, 16] was 512 m. For the same compound, the “Locom. (locomotion)” value [1, 16] was 37261, the “MF (%) (moving fast)” value [1, 16] was 8.90% and the “MS (%) (moving slow)” value [1, 16] was 15.53%. The “RT (%)” value [1, 16] was 75.55%, the “Res.T. (resting time)” value [1, 16] was 9.06 h and the “Stere. (stereotypes)” value [1, 16] was 3902. For the same compound, the “Activ. (global activity)” value [1, 17] was 41,163, the “Locom. (locomotion)” value [1, 17] was 37,261 and the “Stere. (stereotypes)” value [1, 17] was 3,902. For the same compound, the “arthralgia-related changes in mechanical sensitivity” value ([2]; Oatp1a/1b^(−/−) mice vs humanized transgenic and wild-type mice, letrozole 0.1 mg/kg daily for 15 days) was “worst arthralgia-related phenotypic changes in mechanical sensitivity”, the “time of maximal mechanical sensitivity after drug administration” value ([2]; wild-type mice, single dose of letrozole) was 6 h and the “mechanical allodynia (paw withdrawal threshold)” value ([2]; wild-type mice, single dose of letrozole 0.1-0.5 mg/kg) was “reversible, concentration- and time-dependent allodynia”. The “increase of CDCA-24G concentration in plasma vs vehicle control” value ([3]; Cyp3a^(−/−) mice) was 2.17 fold, the “increase of CDCA-24G concentration in plasma vs vehicle control” value ([3]; wild-type mice) was 1.62 fold and the “lesions in knee joints (histopathologic examination)” value [4] was “synovial hyperplasia, synovitis, and patellar tendinitis”. For the same compound, the “AUC fold change vs. WT” value ([5]; Cyp3a^(−/−) vs wild-type mice, letrozole 10 mg/kg oral) was 1.59 (1.34–1.90), the “AUC fold change vs. WT” value ([5]; OATP1B1^(tg) vs wild-type mice, letrozole 10 mg/kg oral) was 1.29 (0.94–1.78) and the “AUC fold change vs. WT” value ([5]; OATP1B3^(tg) vs wild-type mice, letrozole 10 mg/kg oral) was 1.27 (0.83–1.95). The “AUC fold change vs. WT” value ([5]; Oatp1a/1b^(−/−) vs wild-type mice, letrozole 10 mg/kg oral) was 1.3 (0.92–1.86), the AUC(0-t) ([5]; AUC0–6h, OATP1B1^(tg) female mice, letrozole 10 mg/kg oral, mean with SEM) was 33000 ng·h/mL and the AUC(0-t) ([5]; AUC0–6h, OATP1B3^(tg) female mice, letrozole 10 mg/kg oral, mean with SEM) was 32400 ng·h/mL. The AUC(0-t) ([5]; AUC0–6h, Oatp1a/1b^(−/−) female mice, letrozole 10 mg/kg oral, mean with SEM) was 33300 ng·h/mL, the AUC(0-t) ([5]; AUC0–6h, wild-type female mice, letrozole 10 mg/kg oral, mean with SEM) was 25500 ng·h/mL and the AUC(0-t) ([5]; AUC0–24h, Cyp3a^(−/−) female mice, letrozole 10 mg/kg oral single dose, mean ± SEM) was 141000 ng·h/mL. For the same compound, the AUC(0-t) ([5]; AUC0–24h, wild-type female mice, letrozole 10 mg/kg oral single dose, mean ± SEM) was 88700 ng·h/mL, the Cmax ([5]; Cyp3a^(−/−) female mice, letrozole 10 mg/kg oral single dose, mean ± SEM) was 6820 ng/mL and the Cmax ([5]; OATP1B1^(tg) female mice, letrozole 10 mg/kg oral, mean with SEM) was 6550 ng/mL. It also gave a Cmax ([5]; OATP1B3^(tg) female mice, letrozole 10 mg/kg oral, mean with SEM) of 6670 ng/mL, a Cmax ([5]; Oatp1a/1b^(−/−) female mice, letrozole 10 mg/kg oral, mean with SEM) of 6750 ng/mL and a Cmax ([5]; wild-type female mice, letrozole 10 mg/kg oral single dose, Table 1 study, mean ± SEM) of 5800 ng/mL. For the same compound, the Cmax ([5]; wild-type female mice, letrozole 10 mg/kg oral, Table 2 study, mean with SEM) was 5180 ng/mL, the “liver levels, wild-type vs Oatp1a/1b^(−/−) mice” value ([5]; single oral dose, letrozole 10 mg/kg or exemestane 20 mg/kg) was “higher levels” and the “liver concentrations in OATP1B1^(tg) or OATP1B3^(tg) mice” value ([5]; single oral dose, letrozole 10 mg/kg or exemestane 20 mg/kg, relative to Oatp1a/1b^(−/−) and wild-type) was “partially restored”. The “7-year disease-free survival, intermittent vs continuous” value [6] was “comparable”, the “incidence of arthralgia, intermittent vs continuous dosing” value [6] was “only slightly decreased” and the accumulation in plasma [7] was “does not substantially accumulate”.
